Target: T1, GFP-HIBCH (3-hydroxyisobutyryl-CoA hydrolase) (Homo sapiens, UniProt Q6NVY1)
T1 construct: GFP fusion of HIBCH
T1 sequence (Q6NVY1 1-386): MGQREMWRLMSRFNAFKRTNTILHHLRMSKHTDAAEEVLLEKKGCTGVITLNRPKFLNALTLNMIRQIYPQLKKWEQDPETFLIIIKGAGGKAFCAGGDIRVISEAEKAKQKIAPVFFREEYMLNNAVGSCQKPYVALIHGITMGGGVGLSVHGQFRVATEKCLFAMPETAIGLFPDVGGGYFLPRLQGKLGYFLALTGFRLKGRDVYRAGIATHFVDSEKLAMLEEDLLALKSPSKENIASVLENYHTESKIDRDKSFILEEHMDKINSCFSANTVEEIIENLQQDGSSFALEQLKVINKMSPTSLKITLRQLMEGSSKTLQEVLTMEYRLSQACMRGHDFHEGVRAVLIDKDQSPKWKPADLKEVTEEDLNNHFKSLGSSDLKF
Assay: microscale thermophoresis
Type: binding
Conditions: GFP-tagged HIBCH; fit of three independent measurements

CCCCCCCCCCCCOC(=O)[C@@H](C)[C@@]1(O)[C@@H](O[C@@H]2OC[C@H](O)[C@H](O[C@@H]3OC[C@@H](O)[C@H](O)[C@H]3OC(=O)c3ccc(OC)cc3)[C@H]2OC(C)=O)C[C@H]2[C@@H]3CC=C4C[C@@H](O)CC[C@]4(C)[C@H]3CC[C@@]21C [SBF-1]
Kd: 35.9 µM

From paper PMC6692300, “Targeting HIBCH to reprogram valine metabolism for the treatment of colorectal cancer” (Cell Death & Disease, 2019)
